Reference: patent publication US20230203081A1, “LINCOSAMIDE ANTIBIOTICS AND USES THEREOF” (President and Fellows of Harvard College, priority 2020, published 2023)
Values after ≈ are worked out from the molar mass of the structure shown.

Columns and labels:
Assay type in all cases: cell-based
E. coli ΔTolC = test: microbe, parasite or virus in culture; details: Escherichia coli
Procedure, shortened: (§1)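 Inoculum for broth microdilution was 5×10^5 CFU/mL final, prepared from overnight 35° C blood-agar subcultures (separate handling for streptococcal and anaerobic strains); MICs read by CLSI broth microdilution or agar dilution.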

S. aureus BAA 977 iErmA = test: microbe, parasite or virus in culture; details: Staphylococcus aureus, BAA-977 / MRSA
Procedure, shortened: as §1

S. aureus MP-549 msrA = test: microbe, parasite or virus in culture; details: Staphylococcus aureus, MP549MSRA
Procedure, shortened: as §1

[1] = test system: broad panel of different clinical isolates; test: microbe, parasite or virus in culture
Procedure, shortened: as §1

E. coli LptD = test: MIC (broth microdilution or agar dilution, CLSI); details: Escherichia coli, E. coli HAV#040; LptD; read-out: MIC
Procedure, shortened: as §1

E. faecalis ATCC 29212 = test: MIC (broth microdilution or agar dilution, CLSI); details: Enterococcus faecalis, ATCC29212
Procedure, shortened: as §1

[2] = test system: E. faecalis MMX 847; cErmB; test: MIC (broth microdilution or agar dilution, CLSI); details: Enterococcus faecalis
Procedure, shortened: as §1

K. pneumoniae ATCC 10031 = test: MIC (broth microdilution or agar dilution, CLSI); details: Klebsiella pneumoniae, ATCC10031
Procedure, shortened: as §1

S. aureus ATCC 29213 = test: MIC (broth microdilution or agar dilution, CLSI); details: Staphylococcus aureus, ATCC29213
Procedure, shortened: as §1

S. aureus ATCC 700699 = test: MIC (broth microdilution or agar dilution, CLSI); details: Staphylococcus aureus, ATCC 700699 / VISA
Procedure, shortened: as §1

[3] = test system: S. aureus ATCC BAA-1707 (MRSA); test: MIC (broth microdilution or agar dilution, CLSI); details: Staphylococcus aureus
Procedure, shortened: as §1

S. aureus MMX 3035 cErmA = test: MIC (broth microdilution or agar dilution, CLSI); details: Staphylococcus aureus, MMX3035CERMA
Procedure, shortened: as §1

S. aureus hVISA = test: MIC (broth microdilution or agar dilution, CLSI); details: Staphylococcus aureus
Procedure, shortened: as §1

S. pneumoniae ATCC 49619 = test: MIC (broth microdilution or agar dilution, CLSI); details: Streptococcus pneumoniae, ATCC49619
Procedure, shortened: as §1

S. pneumoniae ATCC 6303 = test: MIC (broth microdilution or agar dilution, CLSI); details: Streptococcus pneumoniae, ATCC6303
Procedure, shortened: as §1

[4] = test system: S. pneumoniae MMX 3028 cErmB; test: MIC (broth microdilution or agar dilution, CLSI); details: Streptococcus pneumoniae, MMX3028CERMB
Procedure, shortened: as §1

[5] = test system: S. pneumoniae MMX 3031 cMefA; test: MIC (broth microdilution or agar dilution, CLSI); details: Streptococcus pneumoniae, MMX3031CMEFA
Procedure, shortened: as §1

[6] = test system: S. pyogenes MMX 946; cErmB; test: MIC (broth microdilution or agar dilution, CLSI); details: Streptococcus pyogenes
Procedure, shortened: as §1

Compound `CN[C@H](CC(C)C)C(=O)N[C@H]1C(=O)N[C@@H](CC(N)=O)C(=O)N[C@H]2C(=O)N[C@H]3C(=O)N[C@H](C(=O)N[C@H](C(=O)O)c4cc(O)cc(O)c4-c4cc3ccc4O)[C@H](O)c3ccc(c(Cl)c3)Oc3cc2cc(c3O[C@@H]2O[C@H](CO)[C@@H](O)[C@H](O)[C@H]2O[C@H]2C[C@](C)(N)[C@H](O)[C@H](C)O2)Oc2ccc(cc2Cl)[C@H]1O` [Vancomycin] has an MIC (E. coli ΔTolC) of over 128 µg/mL, an MIC (S. aureus BAA 977 iErmA) of 1 µg/mL (≈ 0.69 µM) and an MIC (S. aureus MP-549 msrA) of 1 µg/mL (≈ 0.69 µM). For the same compound, the MIC ([1]; Acinetobacter baumannii, A. baumannii HAV#651, Clinical) was 128 µg/mL (≈ 88.3 µM), the MIC ([1]; Acinetobacter baumannii, A. baumannii HAV#652 Clinical) was 128 µg/mL (≈ 88.3 µM) and the MIC ([1]; Acinetobacter baumannii, A. baumannii HAV#653, Clinical) was 128 µg/mL (≈ 88.3 µM). The MIC ([1]; Acinetobacter baumannii, A. baumannii HAV#654, Clinical) was 128 µg/mL (≈ 88.3 µM), the MIC ([1]; Acinetobacter baumannii, A. baumannii HAV#655, Clinical) was 128 µg/mL (≈ 88.3 µM) and the MIC ([1]; Acinetobacter baumannii, A. baumannii HAV#656, Clinical) was over 128 µg/mL. It also gave an MIC ([1]; Acinetobacter baumannii, A. baumannii HAV#657, Clinical) of over 128 µg/mL, an MIC ([1]; Acinetobacter baumannii, A. baumannii HAV#658, Clinical) of over 128 µg/mL and an MIC ([1]; Acinetobacter baumannii, A. baumannii HAV#659, Clinical) of over 128 µg/mL. It also gave an MIC ([1]; Acinetobacter baumannii, A. baumannii HAV#660, Clinical) of over 128 µg/mL, an MIC ([1]; Acinetobacter baumannii, A. baumannii HAV#661, Clinical) of 128 µg/mL (≈ 88.3 µM) and an MIC ([1]; Acinetobacter baumannii, A. baumannii HAV#662, Clinical) of over 128 µg/mL. It also gave an MIC ([1]; Acinetobacter baumannii, A. baumannii HAV#663, Clinical) of 128 µg/mL (≈ 88.3 µM), an MIC ([1]; Acinetobacter baumannii, A. baumannii HAV#664, Carbapenem R) of over 128 µg/mL and an MIC ([1]; Enterococcus faecalis, E. faecalis HAV#602, Clincal) of 4 µg/mL (≈ 2.76 µM). The MIC ([1]; Enterococcus faecalis, E. faecalis HAV#607, Clinical) was over 128 µg/mL, the MIC ([1]; Enterococcus faecalis, E. faecalis HAV#608, Clinical) was 16 µg/mL (≈ 11 µM) and the MIC ([1]; Enterococcus faecalis, E. faecalis HAV#609, Clinical) was 32 µg/mL (≈ 22.1 µM). The MIC ([1]; Enterococcus faecalis, E. faecalis HAV#610, Clinical) was 32 µg/mL (≈ 22.1 µM), the MIC ([1]; Enterococcus faecalis, S. faecalis 5060, Line R & Vanco R) was over 256 µg/mL and the MIC ([1]; Enterococcus faecalis, S. faecalis 5074, Line R) was 2 µg/mL (≈ 1.38 µM). It also gave an MIC ([1]; Enterococcus faecalis, VRE, E. faecalis HAV#251, Clinical VRE) of 8 µg/mL (≈ 5.52 µM), an MIC ([1]; Enterococcus faecalis, VRE, E. faecalis HAV#606, Clinical) of over 128 µg/mL and an MIC ([1]; Enterococcus faecium, E. faecium HAV#317, Clinical) of 2 µg/mL (≈ 1.38 µM). The MIC ([1]; Enterococcus faecium, E. faecium HAV#324, Clinical) was over 128 µg/mL, the MIC ([1]; Enterococcus faecium, E. faecium HAV#327, Clinical) was 4 µg/mL (≈ 2.76 µM) and the MIC ([1]; Enterococcus faecium, E. faecium HAV#328, Clinical) was over 128 µg/mL. The MIC ([1]; Enterococcus faecium, E. faecium HAV#329, Clinical) was over 128 µg/mL, the MIC ([1]; Enterococcus faecium, VRE, E. faecium HAV#318, VanA) was over 64 µg/mL and the MIC ([1]; Enterococcus faecium, VRE, E. faecium HAV#319, Line R & Vanco R) was over 256 µg/mL. For the same compound, the MIC ([1]; Enterococcus faecium, VRE, E. faecium HAV#320, Clinical) was over 128 µg/mL, the MIC ([1]; Escherichia coli, E. coli HAV#503, Clinical) was 128 µg/mL (≈ 88.3 µM) and the MIC ([1]; Escherichia coli, E. coli HAV#511, Clinical) was over 128 µg/mL. For the same compound, the MIC ([1]; Escherichia coli, E. coli HAV#512, Clinical) was over 128 µg/mL, the MIC ([1]; Escherichia coli, E. coli HAV#513, Clinical) was over 128 µg/mL and the MIC ([1]; Escherichia coli, E. coli HAV#514, Clinical) was 128 µg/mL (≈ 88.3 µM). It also gave an MIC ([1]; Escherichia coli, E. coli HAV#516, ESBL-producing) of 128 µg/mL (≈ 88.3 µM), an MIC ([1]; Haemophilus influenzae, ATCC9007, H. influenzae HAV#376, ATCC-9007) of over 64 µg/mL and an MIC ([1]; Klebsiella pneumoniae, K. pneumoniae HAV#404, Clinical) of over 128 µg/mL. For the same compound, the MIC ([1]; Klebsiella pneumoniae, K. pneumoniae HAV#405, Clinical) was over 128 µg/mL, the MIC ([1]; Klebsiella pneumoniae, K. pneumoniae HAV#406, Clinical) was over 128 µg/mL and the MIC ([1]; Klebsiella pneumoniae, K. pneumoniae HAV#407, Clinical) was over 128 µg/mL. The MIC ([1]; Klebsiella pneumoniae, K. pneumoniae HAV#408, Clinical) was over 128 µg/mL, the MIC ([1]; Klebsiella pneumoniae, K. pneumoniae HAV#409, ESBL-producing) was over 128 µg/mL and the MIC ([1]; Staphylococcus aureus, MRSA, S. aureus HAV#0107, MRSA Col(Colindale, England)) was 2 µg/mL (≈ 1.38 µM). The MIC ([1]; Staphylococcus aureus, MRSA, S. aureus HAV#218, Line R) was 1 µg/mL (≈ 0.69 µM), the MIC ([1]; Staphylococcus aureus, MRSA, S. aureus HAV#220, Line R) was 1 µg/mL (≈ 0.69 µM) and the MIC ([1]; Staphylococcus aureus, MSSA, S. aureus HAV#219, Line R) was 1 µg/mL (≈ 0.69 µM). The MIC ([1]; Staphylococcus aureus, S. aureus HAV#051, mecA, norA, spcl, ermA, aad1, aac6′-aph2″) was 2 µg/mL (≈ 1.38 µM), the MIC ([1]; Staphylococcus aureus, S. aureus HAV#052, mecA, norA, fosB, blaZ) was 2 µg/mL (≈ 1.38 µM) and the MIC ([1]; Staphylococcus aureus, S. aureus HAV#053 mecA, norA, fosB) was 2 µg/mL (≈ 1.38 µM). It also gave an MIC ([1]; Staphylococcus aureus, S. aureus HAV#054, mecA, norA, spcl, aad1, fosB, ermA, aac6′-aph2″, blaZ) of 1 µg/mL (≈ 0.69 µM), an MIC ([1]; Staphylococcus aureus, S. aureus HAV#211, Clinical) of 0.5 µg/mL (≈ 0.345 µM) and an MIC ([1]; Staphylococcus aureus, S. aureus HAV#212, Clinical) of 0.5 µg/mL (≈ 0.345 µM). The MIC ([1]; Staphylococcus aureus, S. aureus HAV#213, Clinical) was 0.5 µg/mL (≈ 0.345 µM), the MIC ([1]; Staphylococcus aureus, S. aureus HAV#214, Clinical) was 0.5 µg/mL (≈ 0.345 µM) and the MIC ([1]; Staphylococcus aureus, S. aureus HAV#215, Clinical) was 1 µg/mL (≈ 0.69 µM). For the same compound, the MIC ([1]; Staphylococcus aureus, S. aureus HAV#216, Clinical, cfr) was over 64 µg/mL, the MIC ([1]; Staphylococcus aureus, S. aureus HAV#217, cfr) was over 64 µg/mL and the MIC ([1]; Staphylococcus aureus, VISA, S. aureus HAV#203, Clinical (VISA)) was 8 µg/mL (≈ 5.52 µM). It also gave an MIC ([1]; Staphylococcus epidermidis, S. epidermidis HAV# 275 Clinical, cfr) of over 64 µg/mL, an MIC ([1]; Staphylococcus epidermidis, S. epidermidis HAV# 276, cfr) of over 64 µg/mL and an MIC ([1]; Staphylococcus epidermidis, S. epidermidis HAV#277, Line R) of 2 µg/mL (≈ 1.38 µM). The MIC ([1]; Staphylococcus epidermidis, S. epidermidis HAV#278 Line R) was 2 µg/mL (≈ 1.38 µM), the MIC ([1]; Staphylococcus epidermidis, S. epidermidis HAV#279, Line R) was 2 µg/mL (≈ 1.38 µM) and the MIC ([1]; Staphylococcus haemolyticus, S. haemolyticus 5052, Line R & Methicillin R) was 1 µg/mL (≈ 0.69 µM). It also gave an MIC ([1]; Streptococcus pneumoniae, ATCC700673, S. pneumoniae HAV#352, ATCC 700673, MDR) of 0.5 µg/mL (≈ 0.345 µM), an MIC ([1]; Streptococcus pneumoniae, ATCCBAA255, S. pneumoniae HAV#354, ATCC-BAA-255) of 1 µg/mL (≈ 0.69 µM) and an MIC ([1]; Streptococcus pneumoniae, ATCCBAA334, S. pneumoniae HAV#353, ATCC-BAA-334) of 0.5 µg/mL (≈ 0.345 µM). The MIC ([1]; Streptococcus pneumoniae, S. pneumoniae HAV#356, Clinical) was 2 µg/mL (≈ 1.38 µM), the MIC ([1]; Streptococcus pneumoniae, S. pneumoniae HAV#358, Clinical) was 1 µg/mL (≈ 0.69 µM) and the MIC (E. coli LptD) was 1 µg/mL (≈ 0.69 µM). The MIC (E. faecalis ATCC 29212) was 4 µg/mL (≈ 2.76 µM), the MIC [2] was over 64 µg/mL and the MIC (K. pneumoniae ATCC 10031) was over 64 µg/mL. The MIC (S. aureus ATCC 29213) was 1 µg/mL (≈ 0.69 µM), the MIC (S. aureus ATCC 700699) was 8 µg/mL (≈ 5.52 µM) and the MIC [3] was 1 µg/mL (≈ 0.69 µM). It also gave an MIC (S. aureus MMX 3035 cErmA) of 2 µg/mL (≈ 1.38 µM), an MIC (S. aureus hVISA) of 2 µg/mL (≈ 1.38 µM) and an MIC (S. pneumoniae ATCC 49619) of 0.5 µg/mL (≈ 0.345 µM). For the same compound, the MIC (S. pneumoniae ATCC 6303) was 0.5 µg/mL (≈ 0.345 µM), the MIC [4] was 0.25 µg/mL (≈ 0.173 µM) and the MIC [5] was 0.5 µg/mL (≈ 0.345 µM). For the same compound, the MIC [6] was 0.5 µg/mL (≈ 0.345 µM).
